Laboratory results from ChEMBL document CHEMBL4257557, “Design, synthesis, and evaluation of 4,5,6,7-tetrahydrobenzo[d]thiazole-based novel dual kinase inhibitors of CK2 and GSK3β” (Medchemcomm, 2018).

Assays:
[1] = molecular target: T1, Glycogen synthase kinase-3 beta (Homo sapiens, UniProt P49841); assay: Inhibition of recombinant full length human His-tagged GSK3beta expressed in baculovirus expression system at 11 uM using ser/thr-9 peptide as substrate measured after 1 hr by Z'-Lyte assay relative to control
Target sequence in this assay (P49841 whole entry, looked up): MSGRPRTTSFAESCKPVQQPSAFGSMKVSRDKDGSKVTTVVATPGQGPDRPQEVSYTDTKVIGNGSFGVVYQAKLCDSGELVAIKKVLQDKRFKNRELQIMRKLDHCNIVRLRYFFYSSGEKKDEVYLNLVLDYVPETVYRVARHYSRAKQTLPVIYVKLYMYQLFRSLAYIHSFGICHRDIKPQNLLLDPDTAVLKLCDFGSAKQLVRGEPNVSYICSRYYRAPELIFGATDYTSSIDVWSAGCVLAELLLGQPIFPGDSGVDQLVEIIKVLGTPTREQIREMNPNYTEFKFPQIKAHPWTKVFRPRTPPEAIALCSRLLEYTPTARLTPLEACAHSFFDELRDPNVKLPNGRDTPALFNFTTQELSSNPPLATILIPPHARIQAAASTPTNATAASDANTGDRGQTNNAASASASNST

[2] = molecular target: T2, Casein kinase II subunit alpha (Homo sapiens, UniProt P68400); assay: Inhibition of recombinant full length human His-tagged CK2alpha1 expressed in baculovirus expression system at 11 uM using ser/thr-11 peptide as substrate measured after 1 hr by Z'-Lyte assay relative to control
Target sequence in this assay (P68400 whole entry, looked up): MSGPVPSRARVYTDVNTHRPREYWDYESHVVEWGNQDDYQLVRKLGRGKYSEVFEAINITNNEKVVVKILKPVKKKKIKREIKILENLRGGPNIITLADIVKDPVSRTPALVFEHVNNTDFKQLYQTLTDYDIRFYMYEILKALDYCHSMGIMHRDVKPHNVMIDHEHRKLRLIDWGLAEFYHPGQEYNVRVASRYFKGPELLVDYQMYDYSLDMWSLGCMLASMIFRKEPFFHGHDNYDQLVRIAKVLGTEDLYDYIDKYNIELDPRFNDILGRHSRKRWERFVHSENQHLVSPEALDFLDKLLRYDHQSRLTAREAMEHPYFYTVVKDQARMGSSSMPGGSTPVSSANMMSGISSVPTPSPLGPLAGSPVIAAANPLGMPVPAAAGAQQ

[3] = molecular target: T2, Casein kinase II subunit alpha; assay: Inhibition of recombinant full length human His-tagged CK2alpha1 expressed in baculovirus expression system using ser/thr-11 peptide as substrate measured after 1 hr by Z'-Lyte assay
Target sequence in this assay (P68400 whole entry): as the sequence (P68400 whole entry, looked up) above

[4] = molecular target: T1, Glycogen synthase kinase-3 beta; assay: Inhibition of recombinant full length human His-tagged GSK3beta expressed in baculovirus expression system using ser/thr-9 peptide as substrate measured after 1 hr by Z'-Lyte assay
Target sequence in this assay (P49841 whole entry): as the sequence (P49841 whole entry, looked up) above

SMILES	inhibition [1] [%]	inhibition [2] [%]	IC50 [3] [µM]	IC50 [4] [µM]
CCCN(C(=O)Nc1cccc(F)c1)C1CCc2nc(NCc3ccc(C(=O)O)cc3)sc2C1 (stereo not drawn)	< 30	< 30		
CCCN(C(=O)Nc1ccc(F)cc1)C1CCc2nc(NCc3ccc(C(=O)O)cc3)sc2C1 (stereo not drawn)	< 30	< 30		
CCCN(C(=O)Nc1ccc(OC)cc1)C1CCc2nc(NC(=O)Nc3ccc(OC)cc3)sc2C1 (stereo not drawn)	< 30	< 30		
O=C(Nc1cccc(C(=O)O)c1)Nc1nc2c(s1)CC(NC(=O)Nc1cccc(C(=O)O)c1)CC2 (stereo not drawn)	> 30	> 30	12.4	6
O=C(Nc1ccc(F)cc1)Nc1nc2c(s1)CC(NC(=O)Nc1ccc(F)cc1)CC2 (stereo not drawn)	< 30	< 30		
CCCN(C(=O)Nc1cccc(C(=O)O)c1)C1CCc2nc(NC(=O)Nc3cccc(C(=O)O)c3)sc2C1 (stereo not drawn)	> 30	> 30	2.8	1.5
CCCN(C(=O)Nc1ccccc1F)C1CCc2nc(NCc3ccc(C(=O)O)cc3)sc2C1 (stereo not drawn)	< 30	< 30		
CCCN(C(=O)Nc1cccc(F)c1)C1CCc2nc(NCc3ccc(C(=O)OC)cc3)sc2C1 (stereo not drawn)	< 30	< 30		
CCCN(C(=O)Nc1ccc(OC)cc1)C1CCc2nc(NCc3ccc(C(=O)OC)cc3)sc2C1 (stereo not drawn)	< 30	< 30		
CCCN(C(=O)Nc1cccc(C(=O)OCC)c1)C1CCc2nc(NCc3ccc(C(=O)OC)cc3)sc2C1 (stereo not drawn)	> 30	> 30	4.6	13.6
CCCN(C(=O)Nc1cccc(C(=O)O)c1)C1CCc2nc(NCc3ccc(C(=O)O)cc3)sc2C1 (stereo not drawn)	> 30	> 30	4	11.4
CCCN(C(=O)Nc1ccc(OC)cc1)C1CCc2nc(NCc3ccc(C(=O)O)cc3)sc2C1 (stereo not drawn)	< 30	< 30		
CCCN(C(=O)Nc1ccc(F)cc1)C1CCc2nc(NCc3ccc(C(=O)OC)cc3)sc2C1 (stereo not drawn)	< 30	< 30		
CCCN(C(=O)Nc1ccccc1F)C1CCc2nc(NCc3ccc(C(=O)OC)cc3)sc2C1 (stereo not drawn)	< 30	< 30		
O=C(Nc1nc2c(s1)CC(NC(=O)Nc1ccccc1F)CC2)Nc1ccccc1F (stereo not drawn)	< 30	< 30		
CCCN(C(=O)Nc1ccc(C(=O)O)cc1)C1CCc2nc(NCc3ccc(C(=O)O)cc3)sc2C1 (stereo not drawn)	< 30	< 30		
CCCN(C(=O)Nc1cccc(F)c1)C1CCc2nc(NC(=O)Nc3cccc(F)c3)sc2C1 (stereo not drawn)	< 30	< 30		
O=C(Nc1cccc(F)c1)Nc1nc2c(s1)CC(NC(=O)Nc1cccc(F)c1)CC2 (stereo not drawn)	< 30	< 30		
CCCN(C(=O)Nc1ccccc1F)C1CCc2nc(NC(=O)Nc3ccccc3F)sc2C1 (stereo not drawn)	< 30	< 30		

Other lines, results leading:

inhibition [1] [%]	inhibition [2] [%]	IC50 [3] [µM]	IC50 [4] [µM]	SMILES
> 30	> 30	4.9	4.6	O=C(Nc1ccc(C(=O)O)cc1)Nc1nc2c(s1)CC(N1C(=O)c3ccccc3C1=O)CC2 (stereo not drawn)
< 30	< 30			CCOC(=O)c1ccc(NC(=O)Nc2nc3c(s2)CC(N2C(=O)c4ccccc4C2=O)CC3)cc1 (stereo not drawn)
> 30	> 30	1.9	0.67	O=C(Nc1cccc(C(=O)O)c1)Nc1nc2c(s1)CC(N1C(=O)c3ccccc3C1=O)CC2 (stereo not drawn)
< 30	< 30			O=C(Nc1ccc(C(=O)O)cc1)Nc1nc2c(s1)CC(NC(=O)Nc1ccc(C(=O)O)cc1)CC2 (stereo not drawn)
< 30	< 30			COc1ccc(NC(=O)Nc2nc3c(s2)CC(N2C(=O)c4ccccc4C2=O)CC3)cc1 (stereo not drawn)
< 30	< 30			O=C(Nc1cccc(F)c1)Nc1nc2c(s1)CC(N1C(=O)c3ccccc3C1=O)CC2 (stereo not drawn)
< 30	< 30			CCOC(=O)c1ccc(NC(=O)Nc2nc3c(s2)CC(NC(=O)Nc2ccc(C(=O)OCC)cc2)CC3)cc1 (stereo not drawn)
< 30	< 30			O=C(Nc1ccc(F)cc1)Nc1nc2c(s1)CC(N1C(=O)c3ccccc3C1=O)CC2 (stereo not drawn)
< 30	< 30			CCCN(C(=O)Nc1ccc(F)cc1)C1CCc2nc(NC(=O)Nc3ccc(F)cc3)sc2C1 (stereo not drawn)
< 30	< 30			O=C(Nc1nc2c(s1)CC(N1C(=O)c3ccccc3C1=O)CC2)Nc1ccccc1F (stereo not drawn)
< 30	< 30			COc1ccc(NC(=O)Nc2nc3c(s2)CC(NC(=O)Nc2ccc(OC)cc2)CC3)cc1 (stereo not drawn)
< 30	< 30			CCCN(C(=O)Nc1ccc(C(=O)OCC)cc1)C1CCc2nc(NC(=O)Nc3ccc(C(=O)OCC)cc3)sc2C1 (stereo not drawn)
< 30	< 30			CCCN(C(=O)Nc1ccc(C(=O)OCC)cc1)C1CCc2nc(NCc3ccc(C(=O)OC)cc3)sc2C1 (stereo not drawn)
< 30	< 30			CCCN(C(=O)Nc1ccc(C(=O)O)cc1)C1CCc2nc(NC(=O)Nc3ccc(C(=O)O)cc3)sc2C1 (stereo not drawn)
< 30	< 30			CCCN(C(=O)Nc1cccc(C(=O)OCC)c1)C1CCc2nc(NC(=O)Nc3cccc(C(=O)OCC)c3)sc2C1 (stereo not drawn)
> 30	> 30	7.9	5.3	CCOC(=O)c1cccc(NC(=O)Nc2nc3c(s2)CC(N2C(=O)c4ccccc4C2=O)CC3)c1 (stereo not drawn)
> 30	> 30	20.4	2.5	CCOC(=O)c1cccc(NC(=O)Nc2nc3c(s2)CC(NC(=O)Nc2cccc(C(=O)OCC)c2)CC3)c1 (stereo not drawn)
